Experimental data published in PMC12366332 (Applied and Environmental Microbiology, 2025).
Like-named read-outs stand apart in the source and are kept apart here. Square brackets hold non-standard residues; d marks the D form. Ends that are not written are not given here. Peptide text beside a SMILES is read from it. * marks the point of attachment. Hexanoyl = CCCCCC(=O)*; Butyryl = CCCC(=O)*

What was measured:
[1] = system: X. fastidiosa subsp. fastidiosa IVIA 5387.2; conditions: for EC50: 3 h
horse erythrocytes = conditions: red cells of horse, 50 µM
tobacco leaves = conditions: 150 µM; after 48 h
E. coli 0111:B4 LPS = type: biochemical, Escherichia coli

Molecule: CCCC(=O)NCCCC[C@H](NC(=O)[C@@H](NC(=O)[C@H](CCCCN)NC(=O)[C@H](CCCCN)NC(=O)[C@H](Cc1ccccc1)NC(=O)[C@H](CC(C)C)NC(=O)[C@H](CCCCN)NC(=O)[C@H](CCCCN)NC(C)=O)[C@@H](C)CC)C(=O)N[C@@H](CCCCN)C(=O)N[C@@H](Cc1ccc(O)cc1)C(=O)N[C@@H](CC(C)C)C(N)=O [BP387, Ac‐KKLFKKIK(COC3H7)KYL‐NH2]
- Bactericidal activity Reduction in viability (Log N0/N) ([1]; 12.5 µM): 0,83 Log N0/N
- Bactericidal activity Level ([1]; 50 µM): Moderate (key: Very High: very high bactericidal activity (>2.5 log); High: high bactericidal activity (between 2.0 and 2.5 log); Moderate: a moderate activity (between 1.5 and 2.0 log); Low: low active (<1.5 log))
- Bactericidal activity Reduction in viability (Log N0/N) ([1]; 50 µM): 1,96 Log N0/N
- Hemolytic activity (%) (horse erythrocytes): 4%
- Phytotoxicity: diameter of the lesion (tobacco leaves): 8 mm

Molecule: CCCC(=O)N[C@@H](CCCCN)C(=O)N[C@@H](CCCCN)C(=O)N[C@@H](CC(C)C)C(=O)N[C@H](Cc1ccccc1)C(=O)N[C@@H](CCCCN)C(=O)N[C@@H](CCCCN)C(=O)N[C@H](C(=O)N[C@@H](CC(C)C)C(=O)N[C@@H](CCCCN)C(=O)N[C@@H](Cc1ccc(O)cc1)C(=O)N[C@@H](CC(C)C)C(N)=O)[C@@H](C)CC [BP485, C3H7CO-KKLfKKILKYL-NH2]
- Bactericidal activity Reduction in viability (Log N0/N) ([1]; 12.5 µM): 0,49 Log N0/N
- Bactericidal activity Level ([1]; 50 µM): Moderate (key: Very High: very high bactericidal activity (>2.5 log); High: high bactericidal activity (between 2.0 and 2.5 log); Moderate: a moderate activity (between 1.5 and 2.0 log); Low: low active (<1.5 log))
- Bactericidal activity Reduction in viability (Log N0/N) ([1]; 50 µM): 1,92 Log N0/N
- Hemolytic activity (%) (horse erythrocytes): 3%
- Phytotoxicity: diameter of the lesion (tobacco leaves): 3 mm

Molecule: CCCC(=O)NCCCC[C@H](NC(=O)[C@H](CCCCN)NC(=O)[C@H](CC(C)C)NC(=O)[C@@H](NC(=O)[C@H](CCCCN)NC(=O)[C@H](CCCCN)NC(=O)[C@H](Cc1ccccc1)NC(=O)[C@H](CC(C)C)NC(=O)[C@H](CCCCN)NC(=O)[C@H](CCCCN)NC(C)=O)[C@@H](C)CC)C(=O)N[C@@H](CC(C)C)C(N)=O [BP389, Ac-KKLFKKILKK(COC3H7)L-NH2]
- Bactericidal activity Reduction in viability (Log N0/N) ([1]; 3.1 µM): 0,02 Log N0/N
- Bactericidal activity Reduction in viability (Log N0/N) ([1]; 12.5 µM): 1,51 Log N0/N
- Bactericidal activity Level ([1]; 50 µM): High (key: Very High: very high bactericidal activity (>2.5 log); High: high bactericidal activity (between 2.0 and 2.5 log); Moderate: a moderate activity (between 1.5 and 2.0 log); Low: low active (<1.5 log))
- Hemolytic activity (%) (horse erythrocytes): 9%
- Phytotoxicity: diameter of the lesion (tobacco leaves): 7 mm

Molecule: CCCC(=O)NCCCC[C@H](NC(=O)[C@H](Cc1ccc(O)cc1)NC(=O)[C@H](CCCCN)NC(=O)[C@H](CC(C)C)NC(=O)[C@@H](NC(=O)[C@H](CCCCN)NC(=O)[C@H](CCCCN)NC(=O)[C@@H](Cc1ccccc1)NC(=O)[C@H](CC(C)C)NC(=O)[C@H](CCCCN)NC(=O)[C@H](CCCCN)NC(C)=O)[C@@H](C)CC)C(N)=O [BP496, Ac-KKLfKKILKYK(COC3H7)-NH2] (Ac-KKL[dF]KKILKYK(Butyryl)-NH2)
- LPS neutralization Ratio (treatment/NTC) (E. coli 0111:B4 LPS): 0,92
- Bactericidal activity Level ([1]; 50 µM): Low (key: Very High: very high bactericidal activity (>2.5 log); High: high bactericidal activity (between 2.0 and 2.5 log); Moderate: a moderate activity (between 1.5 and 2.0 log); Low: low active (<1.5 log))
- Bactericidal activity Reduction in viability (Log N0/N) ([1]; 50 µM): 0,69 Log N0/N
- Hemolytic activity (%) (horse erythrocytes): 0%
- Phytotoxicity: diameter of the lesion (tobacco leaves): 4 mm

Molecule: CCCCCC(=O)NCCCC[C@H](NC(=O)[C@@H](NC(=O)[C@H](CCCCN)NC(=O)[C@H](CCCCN)NC(=O)[C@H](Cc1ccccc1)NC(=O)[C@H](CC(C)C)NC(=O)[C@H](CCCCN)NC(=O)[C@H](CCCCN)NC(C)=O)[C@@H](C)CC)C(=O)N[C@@H](CCCCN)C(=O)N[C@@H](Cc1ccc(O)cc1)C(=O)N[C@@H](CC(C)C)C(N)=O [BP375, Ac-KKLFKKIK(COC5H11)KYL-NH2] (Ac-KKLFKKIK(Hexanoyl)KYL-NH2)
- Bactericidal activity Reduction in viability (Log N0/N) ([1]; 50 µM): 1,37 Log N0/N
- Hemolytic activity (%) (horse erythrocytes): 23%
- Phytotoxicity: diameter of the lesion (tobacco leaves): 10 mm

Molecule: CCCC(=O)NCCCC[C@H](NC(=O)[C@H](CCCCN)NC(=O)[C@H](CCCCN)NC(C)=O)C(=O)N[C@H](Cc1ccccc1)C(=O)N[C@@H](CCCCN)C(=O)N[C@@H](CCCCN)C(=O)N[C@@H](CCCCN)C(=O)N[C@@H](CC(C)C)C(=O)N[C@@H](CCCCN)C(=O)N[C@@H](Cc1ccc(O)cc1)C(=O)N[C@@H](CC(C)C)C(N)=O [BP546, Ac-KKK(COC3H7)fKKKLKYL-NH2] (Ac-KKK(Butyryl)[dF]KKKLKYL-NH2)
- LPS neutralization Ratio (treatment/NTC) (E. coli 0111:B4 LPS): 0,73
- Bactericidal activity Level ([1]; 50 µM): Low (key: Very High: very high bactericidal activity (>2.5 log); High: high bactericidal activity (between 2.0 and 2.5 log); Moderate: a moderate activity (between 1.5 and 2.0 log); Low: low active (<1.5 log))
- Bactericidal activity Reduction in viability (Log N0/N) ([1]; 50 µM): 0,34 Log N0/N
- Hemolytic activity (%) (horse erythrocytes): 0%
- Phytotoxicity: diameter of the lesion (tobacco leaves): 0 mm

Molecule: YVKLWRMIKFIR-NH2 [YW12D, YVKLWRMIKFIR-NH2, reference compound]
- LPS neutralization Ratio (treatment/NTC) (E. coli 0111:B4 LPS): 0,21
- Bactericidal activity Level ([1]; 50 µM): Low (key: Very High: very high bactericidal activity (>2.5 log); High: high bactericidal activity (between 2.0 and 2.5 log); Moderate: a moderate activity (between 1.5 and 2.0 log); Low: low active (<1.5 log))
- Bactericidal activity Reduction in viability (Log N0/N) ([1]; 50 µM): 0,59 Log N0/N
- Hemolytic activity (%) (horse erythrocytes): 12%
- Phytotoxicity: diameter of the lesion (tobacco leaves): 1 mm

Molecule: CCCCCCCCCCCC(=O)NCCCC[C@H](NC(=O)[C@H](CCCCN)NC(=O)[C@H](CCCCN)NC(C)=O)C(=O)N[C@H](Cc1ccccc1)C(=O)N[C@@H](CCCCN)C(=O)N[C@@H](CCCCN)C(=O)N[C@H](C(=O)N[C@@H](CC(C)C)C(=O)N[C@@H](CCCCN)C(=O)N[C@@H](Cc1ccc(O)cc1)C(=O)N[C@@H](CC(C)C)C(N)=O)[C@@H](C)CC [BP500, Ac-KKK(COC11H23)fKKILKYL-NH2]
- Bactericidal activity Level ([1]; 50 µM): Low (key: Very High: very high bactericidal activity (>2.5 log); High: high bactericidal activity (between 2.0 and 2.5 log); Moderate: a moderate activity (between 1.5 and 2.0 log); Low: low active (<1.5 log))
- Bactericidal activity Reduction in viability (Log N0/N) ([1]; 50 µM): 1,37 Log N0/N
- Hemolytic activity (%) (horse erythrocytes): 99%
- Phytotoxicity: diameter of the lesion (tobacco leaves): 8 mm

Molecule: CCCC(=O)NCCCC[C@H](NC(=O)[C@@H](NC(=O)[C@H](CCCCN)NC(=O)[C@H](CCCCN)NC(=O)[C@@H](Cc1ccccc1)NC(=O)[C@H](CC(C)C)NC(=O)[C@H](CCCCN)NC(=O)[C@H](CCCCN)NC(C)=O)[C@@H](C)CC)C(=O)N[C@@H](CCCCN)C(=O)N[C@@H](Cc1ccc(O)cc1)C(=O)N[C@@H](CC(C)C)C(N)=O [BP474, Ac-KKLfKKIK(COC3H7)KYL-NH2]
- Bactericidal activity Level ([1]; 50 µM): Moderate (key: Very High: very high bactericidal activity (>2.5 log); High: high bactericidal activity (between 2.0 and 2.5 log); Moderate: a moderate activity (between 1.5 and 2.0 log); Low: low active (<1.5 log))
- Bactericidal activity Reduction in viability (Log N0/N) ([1]; 50 µM): 1,76 Log N0/N
- Hemolytic activity (%) (horse erythrocytes): 0%
- Phytotoxicity: diameter of the lesion (tobacco leaves): 2 mm

Molecule: CCCC(=O)NCCCC[C@H](NC(=O)[C@H](CCCCN)NC(=O)[C@H](CC(C)C)NC(=O)[C@@H](NC(=O)[C@H](CCCCN)NC(=O)[C@H](CCCCN)NC(=O)[C@@H](Cc1ccccc1)NC(=O)[C@H](CC(C)C)NC(=O)[C@H](CCCCN)NC(=O)[C@H](CCCCN)NC(C)=O)[C@@H](C)CC)C(=O)N[C@@H](CC(C)C)C(N)=O [BP475, Ac-KKLfKKILKK(COC3H7)L-NH2]
- Bactericidal activity Reduction in viability (Log N0/N) ([1]; 12.5 µM): 1,04 Log N0/N
- Bactericidal activity Level ([1]; 50 µM): High (key: Very High: very high bactericidal activity (>2.5 log); High: high bactericidal activity (between 2.0 and 2.5 log); Moderate: a moderate activity (between 1.5 and 2.0 log); Low: low active (<1.5 log))
- Hemolytic activity (%) (horse erythrocytes): 0%
- Phytotoxicity: diameter of the lesion (tobacco leaves): 4 mm

Molecule: CCCC(=O)NCCCC[C@H](NC(=O)[C@H](CCCCN)NC(=O)[C@@H](Cc1ccccc1)NC(=O)[C@H](CC(C)C)NC(=O)[C@H](CCCCN)NC(=O)[C@H](CCCCN)NC(C)=O)C(=O)N[C@H](C(=O)N[C@@H](CC(C)C)C(=O)N[C@@H](CCCCN)C(=O)N[C@@H](Cc1ccc(O)cc1)C(=O)N[C@@H](CC(C)C)C(N)=O)[C@@H](C)CC [BP473, Ac-KKLfKK(COC3H7)ILKYL-NH2]
- Bactericidal activity Reduction in viability (Log N0/N) ([1]; 3.1 µM): 0,64 Log N0/N
- Bactericidal activity Level ([1]; 50 µM): Very High (key: Very High: very high bactericidal activity (>2.5 log); High: high bactericidal activity (between 2.0 and 2.5 log); Moderate: a moderate activity (between 1.5 and 2.0 log); Low: low active (<1.5 log))
- EC50 [1]: 4.75 µM
- Hemolytic activity (%) (horse erythrocytes): 7%
- Phytotoxicity: diameter of the lesion (tobacco leaves): 4 mm

Molecule: CCCCCCCCCCCC(=O)NCCCC[C@H](NC(=O)[C@@H](NC(=O)[C@H](CCCCN)NC(=O)[C@H](CCCCN)NC(=O)[C@@H](Cc1ccccc1)NC(=O)[C@H](CC(C)C)NC(=O)[C@H](CCCCN)NC(=O)[C@H](CCCCN)NC(C)=O)[C@@H](C)CC)C(=O)N[C@@H](CCCCN)C(=O)N[C@@H](Cc1ccc(O)cc1)C(=O)N[C@@H](CC(C)C)C(N)=O [BP490, Ac-KKLfKKIK(COC11H23)KYL-NH2]
- Bactericidal activity Reduction in viability (Log N0/N) ([1]; 3.1 µM): 1,28 Log N0/N
- Bactericidal activity Level ([1]; 50 µM): High (key: Very High: very high bactericidal activity (>2.5 log); High: high bactericidal activity (between 2.0 and 2.5 log); Moderate: a moderate activity (between 1.5 and 2.0 log); Low: low active (<1.5 log))
- Hemolytic activity (%) (horse erythrocytes): 100%
- Phytotoxicity: diameter of the lesion (tobacco leaves): 6 mm

Molecule: CCCCCC(=O)NCCCC[C@H](NC(=O)[C@H](CCCCN)NC(=O)[C@H](CC(C)C)NC(=O)[C@@H](NC(=O)[C@H](CCCCN)NC(=O)[C@H](CCCCN)NC(=O)[C@H](Cc1ccccc1)NC(=O)[C@H](CC(C)C)NC(=O)[C@H](CCCCN)NC(=O)[C@H](CCCCN)NC(C)=O)[C@@H](C)CC)C(=O)N[C@@H](CC(C)C)C(N)=O [BP377, Ac-KKLFKKILKK(COC5H11)L-NH2] (Ac-KKLFKKILKK(Hexanoyl)L-NH2)
- Bactericidal activity Reduction in viability (Log N0/N) ([1]; 3.1 µM): 1,34 Log N0/N
- Bactericidal activity Reduction in viability (Log N0/N) ([1]; 12.5 µM): 1,88 Log N0/N
- Bactericidal activity Level ([1]; 50 µM): Very High (key: Very High: very high bactericidal activity (>2.5 log); High: high bactericidal activity (between 2.0 and 2.5 log); Moderate: a moderate activity (between 1.5 and 2.0 log); Low: low active (<1.5 log))
- EC50 [1]: 3.67 µM
- Hemolytic activity (%) (horse erythrocytes): 71%
- Phytotoxicity: diameter of the lesion (tobacco leaves): 11 mm

Molecule: RKVRGPP-NH2 [Lf(28-34), RKVRGPP-NH2, reference compound]
- Hemolytic activity (%) (horse erythrocytes): 1%
- Phytotoxicity: diameter of the lesion (tobacco leaves): 0 mm
